We go through seven compounds from patent US20150315188A1, “COMPOUNDS AND METHODS FOR TREATMENT OF HYPERTENSION” (MEDIVATION TECHNOLOGIES, INC., priority 2012, published 2015).

Design in all cases: purchased Milipore (Millipore)
Test [1] deals with T1, Human adrenergic α2A receptor (Homo sapiens, UniProt P08913).
T1 sequence (P08913 1-465): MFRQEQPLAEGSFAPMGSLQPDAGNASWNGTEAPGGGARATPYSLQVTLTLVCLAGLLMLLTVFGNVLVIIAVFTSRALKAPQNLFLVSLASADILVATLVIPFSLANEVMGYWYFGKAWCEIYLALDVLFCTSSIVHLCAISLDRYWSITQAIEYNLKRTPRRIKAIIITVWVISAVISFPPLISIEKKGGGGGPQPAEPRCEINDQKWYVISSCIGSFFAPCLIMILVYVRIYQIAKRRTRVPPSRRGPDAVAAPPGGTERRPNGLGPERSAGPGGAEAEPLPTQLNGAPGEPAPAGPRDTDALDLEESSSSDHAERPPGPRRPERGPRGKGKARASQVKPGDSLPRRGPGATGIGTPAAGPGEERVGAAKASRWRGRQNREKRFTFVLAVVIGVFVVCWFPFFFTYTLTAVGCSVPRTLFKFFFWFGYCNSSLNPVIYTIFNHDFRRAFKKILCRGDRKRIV
Put plainly: Radioligand binding, adrenergic α2A (Protocol Group B). As to conditions: for Ki: estimated Ki. The procedure, abridged:
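Membranes from recombinant cells expressing the receptor, in 50 mM Tris-HCl pH 7.4 with 5 mM MgCl2, 1 mM CaCl2, 0.2% BSA; compounds incubated with 2 nM [^3H]MK-912 for 60 min at 25° C. Nonspecific binding defined by 10 μM rauwolscine; filtration, counting; percent inhibition of specific binding, or estimated Ki.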

Test [2] addresses T2, Human adrenergic α2B receptor (Homo sapiens, UniProt P18089).
T2 sequence (P18089 1-450): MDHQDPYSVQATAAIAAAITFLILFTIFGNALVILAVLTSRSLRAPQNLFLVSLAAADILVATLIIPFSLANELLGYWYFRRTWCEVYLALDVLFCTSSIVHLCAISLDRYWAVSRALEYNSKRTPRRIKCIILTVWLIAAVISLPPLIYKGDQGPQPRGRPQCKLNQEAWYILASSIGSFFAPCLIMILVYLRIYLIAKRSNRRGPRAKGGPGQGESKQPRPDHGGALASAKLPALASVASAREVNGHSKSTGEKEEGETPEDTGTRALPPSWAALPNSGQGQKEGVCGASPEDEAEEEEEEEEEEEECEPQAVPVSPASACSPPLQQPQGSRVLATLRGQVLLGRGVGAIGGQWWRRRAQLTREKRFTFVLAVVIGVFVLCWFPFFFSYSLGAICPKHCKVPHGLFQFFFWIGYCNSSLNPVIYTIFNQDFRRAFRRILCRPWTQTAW
Put plainly: Radioligand binding, adrenergic α2B (Protocol Group B). As to conditions: for Ki: estimated Ki, read-out: Ki α2B; for Percentage inhibition of ligand binding, Adrenergic α2B, 0.1 nM: 0.0001 µM; for Percentage inhibition of ligand binding, Adrenergic α2B (10 nM): 0.01 µM; for inhibition at 0.03 µM: read-out: Percentage inhibition of ligand binding, Adrenergic α2B (30 nM); for inhibition at 0.1 µM: read-out: Percentage inhibition of ligand binding, Adrenergic α2B (0.1 μM). A digest of the protocol: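 Recombinant human α2B receptor membranes incubated with compounds in 50 mM Tris-HCl pH 7.4, 5 mM MgCl2, 1 mM CaCl2, 0.2% BSA, 1% DMSO vehicle. Non-specific binding defined with 10 μM rauwolscine. Values are percent inhibition of specific binding or estimated Ki.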

Test [3] addresses T3, Human adrenergic α1B receptor (Homo sapiens, UniProt P35368).
T3 sequence (P35368 1-520): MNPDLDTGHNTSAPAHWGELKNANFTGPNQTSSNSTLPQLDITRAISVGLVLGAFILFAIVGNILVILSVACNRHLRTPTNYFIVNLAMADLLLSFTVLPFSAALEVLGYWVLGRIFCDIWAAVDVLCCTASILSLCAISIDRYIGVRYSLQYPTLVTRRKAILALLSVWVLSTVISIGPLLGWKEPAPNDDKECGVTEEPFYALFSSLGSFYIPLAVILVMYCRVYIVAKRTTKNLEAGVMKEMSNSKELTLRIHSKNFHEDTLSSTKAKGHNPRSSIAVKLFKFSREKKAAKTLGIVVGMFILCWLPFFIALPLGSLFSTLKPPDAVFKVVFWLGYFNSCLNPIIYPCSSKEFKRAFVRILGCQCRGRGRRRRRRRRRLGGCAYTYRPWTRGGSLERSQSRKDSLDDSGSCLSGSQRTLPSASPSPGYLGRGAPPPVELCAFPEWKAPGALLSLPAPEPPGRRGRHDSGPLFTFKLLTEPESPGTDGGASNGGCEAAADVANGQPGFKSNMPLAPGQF
Put plainly: Radioligand binding, adrenergic α1B (Protocol Group B). As to conditions: for Ki: estimated Ki; for inhibition at 0.1 µM: read-out: Percentage inhibition of ligand binding, Adrenergic α1B (0.1 μM); for inhibition at 0.3 µM: read-out: Percentage inhibition of ligand binding, Adrenergic α1B (0.3 μM). A digest of the protocol:
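Recombinant human α1B membranes incubated with test compound and 0.3 nM [3H]prazosin, 60 min at 25 °C, in 50 mM Tris-HCl pH 7.4, 10 mM MgCl2, 1 mM EDTA; nonspecific binding with 10 μM prazosin. Filter-bound radioactivity counted; values are % inhibition of specific binding or estimated Ki.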

The mark [4] stands for this setting: 0.3 μM compound, Protocol Group B.
Setting [5] is: 0.1 nM compound, concentration series.
[6] abbreviates: 10 nM compound, Protocol Group B.
Where [7] appears, read: 30 nM compound, Protocol Group B.
The mark [8] stands for this setting: 0.1 μM compound, Protocol Group B.
Setting [9] is: 0.1 μM compound, Protocol Group B, 0.1 µM.

For `Cc1ccc2c(c1)c1c(n2CC(OC(=O)N2CCCC2)c2ccncc2)CCN(C)C1` (single isomer, unassigned) [4b], the inhibition constant (Ki) is 126 nM in test [1] (Protocol Group B), 3.6 nM in test [2] (Protocol Group B) and 269 nM in test [3] (Protocol Group B).

Turning to `Cc1ccc2c(c1)c1c(n2CC(C)(O)c2ccc(F)nc2)CCN2CCCC12` (single isomer, unassigned) [6a], the Ki in test [1] (Protocol Group B) was 55 nM; in test [2] (Protocol Group B), 1.4 nM; in test [3] (Protocol Group B), 25 nM.

In the case of `Cc1ccc2c(c1)c1c(n2CC(C)(O)c2ccncc2)CCN2CCCC12` (single isomer, unassigned) [13a], the Ki in test [1] (Protocol Group B) was 50 nM; in test [2] (Protocol Group B) it was 1.85 nM; in test [3] (Protocol Group B), 10 nM.

Turning to `Cc1ccc2c(c1)c1c(n2CC(C)(O)c2ccncc2)CCN2CCCC12` (single isomer, unassigned) [13b], the inhibitory constant (Ki) in test [1] (Protocol Group B) is 13 nM; in test [2] (Protocol Group B) it was 1.22 nM; in test [3] (Protocol Group B), 35 nM.

Turning to `Cc1ccc2c(c1)c1c(n2CC(O)c2ccncc2F)CCN2CCCC12` (single isomer, unassigned) [14a], in test [1] (setting [4]), the “Percentage inhibition of ligand binding, Adrenergic α2A (0.3 μM)” value worked out at 39%. The Ki in test [1] (Protocol Group B) was 305 nM; in test [2] (Protocol Group B) it was 6.5 nM; in test [3] (Protocol Group B), 18.2 nM. The “Percentage inhibition of ligand binding, Adrenergic α2B, 0.1 nM” value in test [2] (setting [5]) is −28%. The “Percentage inhibition of ligand binding, Adrenergic α2B (10 nM)” value in test [2] (setting [6]) is on record as 60%. Besides, the inhibition at 0.03 µM in test [2] (setting [7]) came to 81%. For the same compound, the figures for the inhibition at 0.1 µM in test [2] (setting [8]) and in test [3] (setting [8]) were 89% and 70%, respectively. The inhibition at 0.3 µM in test [3] (setting [4]) turned out to be 87%.

As to `Cc1ccc2c(c1)c1c(n2CC(O)c2ccncc2F)CCN2CCCC12` (single isomer, unassigned) [14b], the “Percentage inhibition of ligand binding, Adrenergic α2A (0.1 μM)” value in test [1] (setting [9]) was found to be 80%. In test [1] (setting [4]), the “Percentage inhibition of ligand binding, Adrenergic α2A (0.3 μM)” value turned out to be 89%. Further, the Ki in test [1] (Protocol Group B) is 6.8 nM; in test [2] (Protocol Group B), 1.1 nM; in test [3] (Protocol Group B), 4.5 nM. For the same compound, the “Percentage inhibition of ligand binding, Adrenergic α2B, 0.1 nM” value in test [2] (setting [5]) was 18%. Moreover, the “Percentage inhibition of ligand binding, Adrenergic α2B (10 nM)” value in test [2] (setting [6]) came to 98%. Further, in test [2] (30 nM compound, Protocol Group B, 0.03 µM), the “Percentage inhibition of ligand binding, Adrenergic α2B (30 nM)” value was found to be 100%. The “Percentage inhibition of ligand binding, Adrenergic α2B (0.1 μM)” value in test [2] (setting [9]) is reported as 96%. For the same compound, in test [3] (setting [9]), the “Percentage inhibition of ligand binding, Adrenergic α1B (0.1 μM)” value turned out to be 85%. In addition, the “Percentage inhibition of ligand binding, Adrenergic α1B (0.3 μM)” value in test [3] (0.3 μM compound, Protocol Group B, 0.3 µM) came out at 95%.

On to `OC(Cn1c2c(c3cc(F)ccc31)C1CCCN1CC2)c1ccncc1` (single isomer, unassigned) [18b], for which the inhibition at 0.0032 µM in test [1] (3.2 nM compound, concentration series, read-out: Percentage inhibition of ligand binding, Adrenergic α2A, 3.2 nM) stood at 8%; in test [2] (3.2 nM compound, concentration series, read-out: Percentage inhibition of ligand binding, Adrenergic α2B, 3.2 nM), 78%; in test [3] (3.2 nM compound, concentration series, read-out: Percentage inhibition of ligand binding, Adrenergic α1B, 3.2 nM) it was 14%. Further, the inhibition at 0.01 µM in test [1] (10 nM compound, concentration series, read-out: Percentage inhibition of ligand binding, Adrenergic α2A, 10 nM) was found to be 12%; in test [2] (10 nM compound, Protocol Group B, read-out: Percentage inhibition of ligand binding, Adrenergic α2B (10 nM)) it was 94%; in test [3] (10 nM compound, concentration series, read-out: Percentage inhibition of ligand binding, Adrenergic α1B, 10 nM), 17%. Moreover, the inhibition at 0.03 µM in test [1] (0.03 μM compound, concentration series, read-out: Percentage inhibition of ligand binding, Adrenergic α2A, 0.03 μM) was determined as 27%; in test [2] (setting [7]), 97%; in test [3] (0.03 μM compound, concentration series, read-out: Percentage inhibition of ligand binding, Adrenergic α1B, 0.03 μM), 14%. In addition, the inhibition at 0.1 µM in test [1] (0.1 μM compound, Protocol Group B, read-out: Percentage inhibition of ligand binding, Adrenergic α2A (0.1 μM)) is 45%; in test [2] (setting [8]), 100%; in test [3] (setting [8]) it was 45%. Besides, the inhibition at 0.3 µM in test [1] (0.3 μM compound, Protocol Group B, read-out: Percentage inhibition of ligand binding, Adrenergic α2A (0.3 μM)) is 71%; in test [3] (setting [4]), 63%. Further, the inhibition at 0.32 µM in test [1] (0.32 μM compound, concentration series, read-out: Percentage inhibition of ligand binding, Adrenergic α2A, 0.32 μM) is 76%; in test [3] (0.32 μM compound, concentration series, read-out: Percentage inhibition of ligand binding, Adrenergic α1B, 0.32 μM) it was 74%. The inhibition at 1 µM was determined as 90% in test [1] (1 μM compound, concentration series, read-out: Percentage inhibition of ligand binding, Adrenergic α2A, 1 μM) and 87% in test [3] (1 μM compound, concentration series, read-out: Percentage inhibition of ligand binding, Adrenergic α1B, 1 μM). In addition, the inhibition at 3.2 µM in test [1] (3.2 μM compound, concentration series, read-out: Percentage inhibition of ligand binding, Adrenergic α2A, 3.2 μM) turned out to be 96%; in test [3] (3.2 μM compound, concentration series, read-out: Percentage inhibition of ligand binding, Adrenergic α1B, 3.2 μM), 96%. The inhibition at 10 µM is 99% in test [1] (10 μM compound, concentration series, read-out: Percentage inhibition of ligand binding, Adrenergic α2A, 10 μM) and 99% in test [3] (10 μM compound, concentration series, read-out: Percentage inhibition of ligand binding, Adrenergic α1B, 10 μM). For the same compound, the figures for the inhibitory constant (Ki) in test [1] (Protocol Group B), in test [2] (Protocol Group B) and in test [3] (Protocol Group B) were 55.9 nM, 1.03 nM and 65.8 nM, respectively. Moreover, in test [2] (0.03 nM compound, concentration series, read-out: Percentage inhibition of ligand binding, Adrenergic α2B, 0.03 nM), the inhibition at 30 pM was determined as 19%. The inhibition at 0.0001 µM in test [2] (0.1 nM compound, concentration series, read-out: Percentage inhibition of ligand binding, Adrenergic α2B, 0.1 nM) was 6%. For the same compound, in test [2] (0.32 nM compound, concentration series, read-out: Percentage inhibition of ligand binding, Adrenergic α2B, 0.32 nM), the inhibition at 0.00032 µM worked out at 14%. Further, the inhibition at 0.001 µM in test [2] (1 nM compound, concentration series, read-out: Percentage inhibition of ligand binding, Adrenergic α2B, 1 nM) was determined as 29%.
